Results taken from ChEMBL document CHEMBL6134868, “Novel Aryl Sulfonium Modification on Vancomycin to Tackle MRSA and VRE In Vitro and In Vivo through Dual Enhanced Cell-Wall and Membrane Inhibition” (J Med Chem, 2025).
≈ marks a conversion by molar mass, not a printed value. Calls of active or inactive are those of the source. The rule behind the calls is not given here.

Columns and labels:
[1] = test system: Staphylococcus aureus; test: Antibacterial activity against vancomycin-intermediate Staphylococcus aureus Mu50 incubated for 16 to 24 hrs by broth microdilution assay; assay type: functional; details: time 16-24 hrs
[2] = test system: Staphylococcus aureus; test: Antibacterial activity against methicillin-resistant Staphylococcus aureus USA300 LAC incubated for 16 to 24 hrs by broth microdilution assay; assay type: functional; details: time 16-24 hrs
[3] = test system: Enterococcus faecium; test: Antibacterial activity against vancomycin-resistant Enterococcus faecium Efm-HS-0649 harboring VanA phenotype incubated for 16 to 24 hrs by broth microdilution assay; assay type: functional; details: time 16-24 hrs
[4] = test system: Enterococcus faecium; test: Antibacterial activity against vancomycin-resistant Enterococcus faecium Efm-HS-08257 harboring VanM phenotype incubated for 16 to 24 hrs by broth microdilution assay; assay type: functional; details: time 16-24 hrs
[5] = test system: Enterococcus faecium; test: Antibacterial activity against vancomycin-resistant Enterococcus faecium Efm-HS-vb01 harboring VanB phenotype incubated for 16 to 24 hrs by broth microdilution assay; assay type: functional; details: time 16-24 hrs
[6] = test system: Enterococcus faecium; test: Antibacterial activity against vancomycin-resistant Enterococcus faecium Efm-HS-vb02 harboring VanB phenotype incubated for 16 to 24 hrs by broth microdilution assay; assay type: functional; details: time 16-24 hrs
[7] = test system: Escherichia coli; test: Antibacterial activity against Escherichia coli AB1157 incubated for 16 to 24 hrs by broth microdilution assay; assay type: functional; details: time 16-24 hrs
[8] = test system: Pseudomonas aeruginosa; test: Antibacterial activity against Pseudomonas aeruginosa PAO1 incubated for 16 to 24 hrs by broth microdilution assay; assay type: functional; details: time 16-24 hrs
[9] = test system: Klebsiella pneumoniae; test: Antibacterial activity against Klebsiella pneumoniae KP-1 incubated for 16 to 24 hrs by broth microdilution assay; assay type: functional; details: time 16-24 hrs
[10] = Half life in CD-1 mouse at 5 mg/kg, iv measured for 0.05 to 24 hrs by UPLC analysis; assay type: ADME, organism-based; details: in vivo, time 0.05-24 hrs
[11] = AUClast in CD-1 mouse at 5 mg/kg, iv measured for 0.05 to 24 hrs by UPLC analysis; assay type: ADME, organism-based; details: in vivo, time 0.05-24 hrs
[12] = AUC (infinity) in CD-1 mouse at 5 mg/kg, iv measured for 0.05 to 24 hrs by UPLC analysis; assay type: ADME, organism-based; details: in vivo, time 0.05-24 hrs
[13] = Clearance in CD-1 mouse at 5 mg/kg, iv measured for 0.05 to 24 hrs by UPLC analysis; assay type: ADME, organism-based; details: in vivo, time 0.05-24 hrs
[14] = MRT (infinity) in CD-1 mouse at 5 mg/kg, iv measured for 0.05 to 24 hrs by UPLC analysis; assay type: ADME, organism-based; details: in vivo, time 0.05-24 hrs
[15] = Volume of distribution at steady state in CD-1 mouse at 5 mg/kg, iv measured for 0.05 to 24 hrs by UPLC analysis; assay type: ADME, organism-based; details: in vivo, time 0.05-24 hrs, read-out: Vdss
[16] = test system: Staphylococcus aureus; test: Antibacterial activity against methicillin-resistant Staphylococcus aureus USA300 LAC infected in mouse model; assay type: functional
[17] = test system: Staphylococcus aureus; test: Antibacterial activity against methicillin-resistant Staphylococcus aureus […] infected in CD-1 mouse model assessed as animal survival rate at 7 mg/kg, iv measured for 15 days relative to control; assay type: functional; details: 360 h, time 15 day
[18] = test system: Staphylococcus aureus; test: Antibacterial activity against vancomycin-intermediate Staphylococcus aureus XN108 infected in CD-1 mouse model assessed as animal survival rate at 7 mg/kg, iv measured for 15 days relative to control; assay type: functional; details: XN108, 360 h, time 15 day
[19] = test system: Acinetobacter baumannii; test: Antibacterial activity against carbapenem-resistant Acinetobacter baumannii CRAB-1 clinical isolate incubated for 16 to 24 hrs by broth microdilution assay; assay type: functional; details: time 16-24 hrs
[20] = test system: Acinetobacter baumannii; test: Antibacterial activity against Acinetobacter baumannii ATCC19606 incubated for 16 to 24 hrs by broth microdilution assay; assay type: functional; details: time 16-24 hrs
[21] = Protein binding in plasma (unknown origin); assay type: ADME, cell-free; details: read-out: PPB (converted)
[22] = Hemolytic activity against rat erythrocytes at 100 ug/ml incubated for 1 hr by absorbance based assay; assay type: toxicity, cell-based, Erythrocyte
[23] = test system: Staphylococcus aureus; test: Antibacterial activity against methicillin-resistant Staphylococcus aureus USA300 LAC infected in female BALB/c mouse assessed as animal survival rate at 7 mg/kg, iv measured for 7 days consecutively relative to control; assay type: functional
[24] = test system: Enterococcus faecium; test: Antibacterial activity against vancomycin-resistant Enterococcus faecium SC-2022-D2-059 harboring VanA phenotype infected in ICR mouse assessed as animal survival rate at 20 mg/kg, iv measured for 7 days relative to control; assay type: functional; details: SC-2022-D2-059, 168 h, time 7 day
[25] = test system: Enterococcus faecium; test: Antibacterial activity against vancomycin-resistant Enterococcus faecium SC-2022-D2-059 harboring VanA phenotype incubated for 16 to 24 hrs by broth microdilution assay; assay type: functional; details: time 16-24 hrs
[26] = Cytotoxicity against HK-2 cells assessed as cell viability at 50 mg/L incubated for 72 hrs by CCK8 assay relative to control; assay type: toxicity, cell-based; details: human, at 50 µg/mL, read-out: Activity
[27] = Cytotoxicity against mouse AML12 cells assessed as cell viability at 50 mg/L incubated for 72 hrs by CCK8 assay relative to control; assay type: toxicity, cell-based; details: at 50 µg/mL, read-out: Activity
[28] = test system: Bacteria; test: Antibacterial activity against Gram-positive bacteria incubated for 16 to 24 hrs by broth microdilution assay; assay type: functional; details: time 16-24 hrs
[29] = Acute toxicity in mouse assessed as animal suvival at 40 mg/kg, iv measured for 7 days; assay type: organism-based; details: in vivo, 168 h, time 7 day
[30] = Drug concentration in CD-1 mouse at 5 mg/kg, iv measured after 8 hrs; assay type: ADME, organism-based; details: in vivo, read-out: Drug uptake
[31] = test system: Enterococcus faecium; test: Antibacterial activity against vancomycin-resistant Enterococcus faecium SC-2022-D2-059 harboring VanA phenotype infected in ICR mouse assessed as animal survival rate at 10 to 20 mg/kg, iv measured for 7 days relative to control; assay type: functional; details: dose 10-20 mg/kg, time 7 day
[32] = test system: Enterococcus faecium; test: Antibacterial activity against vancomycin-resistant Enterococcus faecium SC-2022-D2-059 harboring VanA phenotype infected in ICR mouse assessed as animal survival rate at 5 mg/kg, iv measured for 7 days relative to control; assay type: functional; details: SC-2022-D2-059, 168 h, time 7 day
[33] = test system: Staphylococcus aureus; test: Induction of membrane permeability in methicillin-resistant Staphylococcus aureus USA300 LAC by fluorescence based analysis; assay type: functional, organism-based; details: dose 2.67-170 µg/ml
[34] = test system: Staphylococcus aureus; test: Dissipation of membrane potential in methicillin-resistant Staphylococcus aureus USA300 LAC at 1.3 to 170 ug/ml by DiSC3(5) dye based analysis; assay type: functional, organism-based; details: dose 1.3-170 µg/ml
[35] = test system: Acinetobacter baumannii; test: Induction of outer membrane permeability in carbapenem-resistant Acinetobacter baumannii CRAB-1 clinical isolate by NPN dye based analysis; assay type: functional, organism-based; details: dose 1.33-170 µg/ml
[36] = test system: Staphylococcus aureus; test: Inhibition of peptidoglycan biosynthesis in methicillin-resistant Staphylococcus aureus USA300 LAC assessed as fold increase in accumulation of Park's nucleotide at 5 ug/ml incubated for 2 hrs by RP-HPLC analysis; assay type: functional; details: dose 5 µg/ml

Compound | MIC [1] [µg/mL] | MIC [2] [µg/mL] | MIC [3] [µg/mL] | MIC [4] [µg/mL] | MIC [5] [µg/mL] | MIC [6] [µg/mL] | MIC [7] [µg/mL] | MIC [8] [µg/mL] | MIC [9] [µg/mL] | half-life [10] [h] | AUC(0-t) [11] [ng·h/mL] | AUC(0-inf) [12] [ng·h/mL] | clearance [13] [mL/min/kg] | MRT inf [14] [h] | Vd [15] [L/kg] | MIC [19] [µg/mL] | MIC [20] [µg/mL] | MIC [25] [µg/mL] | also measured
CCCCCCCCC(O)C[S+](C)CCCNCc1c(O)cc2c(c1O)-c1cc(ccc1O)[C@H]1NC(=O)[C@@H]3NC(=O)[C@H](CC(N)=O)NC(=O)[C@H](NC(=O)[C@@H](CC(C)C)NC)[C@H](O)c4ccc(c(Cl)c4)Oc4cc3cc(c4O[C@@H]3O[C@H](CO)[C@@H](O)[C@H](O)[C@H]3O[C@H]3C[C@](C)(N)[C@H](O)[C@H](C)O3)Oc3ccc(cc3Cl)[C@@H](O)[C@H](NC1=O)C(=O)N[C@@H]2C(=O)O.O=C([O-])C(F)(F)F (some centres undefined) | 0.25 | ≤ 0.063 | 8 | 2 | ≤ 0.063 | 1 | 32 | > 128 | > 128 | 1.13 | 7050 | 7080 | 12 | 0.931 | 0.672 |  |  |  | Efficacy [16]: 53.3%; survival at 7 mg/kg [17]: 86.7%; survival at 7 mg/kg [18]: 80%
CN[C@H](CC(C)C)C(=O)N[C@H]1C(=O)N[C@@H](CC(N)=O)C(=O)N[C@H]2C(=O)N[C@H]3C(=O)N[C@H](C(=O)N[C@H](C(=O)O)c4cc(O)cc(O)c4-c4cc3ccc4O)[C@H](O)c3ccc(c(Cl)c3)Oc3cc2cc(c3O[C@@H]2O[C@H](CO)[C@@H](O)[C@H](O)[C@H]2O[C@H]2C[C@](C)(N)[C@H](O)[C@H](C)O2)Oc2ccc(cc2Cl)[C@H]1O [VANCOMYCIN] | 8 (≈ 5.52 µM) |  | > 128 | > 128 | > 128 | 16 (≈ 11 µM) | > 128 | > 128 | > 128 |  |  |  |  |  |  | > 128 | > 128 | ≥ 128 | fraction unbound [21]: 0.9; hemolysis at 1 h, 100 ug/ml ([22]; erythrocytes, at 100 µg/mL, read-out: Activity): ~6%; Activity ([23]; time 7.0 day): inactive; survival at 20 mg/kg [24]: 0%
CN[C@H](CC(C)C)C(=O)N[C@H]1C(=O)N[C@@H](CC(N)=O)C(=O)N[C@H]2C(=O)N[C@H]3C(=O)N[C@H](C(=O)N[C@H](C(=O)O)c4cc(O)c(CNCCC[S+](C)CC(O)COc5ccc(-c6ccc(C(F)(F)F)cc6)cc5)c(O)c4-c4cc3ccc4O)[C@H](O)c3ccc(c(Cl)c3)Oc3cc2cc(c3O[C@@H]2O[C@H](CO)[C@@H](O)[C@H](O)[C@H]2O[C@H]2C[C@](C)(N)[C@H](O)[C@H](C)O2)Oc2ccc(cc2Cl)[C@H]1O.O=C([O-])C(F)(F)F (some centres undefined) | 0.125 | 0.031 | 0.5 | 2 | ≤ 0.063 | ≤ 0.063 | 8 | > 128 | 128 | 3.57 | 41600 | 42000 | 2.28 | 3.98 | 0.566 | 32 | 16 | 0.12 | viability at 72 h, 50 mg/L [26]: ~100%; viability at 72 h, 50 mg/L [27]: ~100%; MIC [28]: ≤ 0.063 µg/mL; Activity [29]: Non-toxic; Activity ([22]; erythrocyte, 1 h, dose 100 µg/ml): Toxic; concentration at 8 h [30]: ~700 ng/mL; survival at 7 mg/kg ([23]; 168 h, time 7 day): 100%; Survival [31]: 100%; survival at 5 mg/kg [32]: 50%; Activity [33]: Dose-dependent-effect; Activity [34]: Active; Activity [35]: Active; fold change (FC) [36]: <=3
